Measurements taken from patent US10869931B2, “Polyethylene glycol-modified angiogenesis inhibitor HM-1 and application thereof” (NANJING ANJI BIOLOGICAL TECHNOLOGY CO.,LTD, priority 2016, dated 2020).
Marks after values point to notes of the source that are not given here. Where no end group is shown, it is not given here.

Legend:
[1] = tested on: human retinal vascular endothelial cells (HRCEC); test: MTT proliferation of human retinal vascular endothelial cells; type: cell-based; settings: 48 h; for Inhibition rate: HRCEC proliferation; for A570 nm-A630 nm: HRCEC
Description: The activity of the angiogenesis inhibitor polypeptide to inhibit proliferation of human retinal vascular endothelial cells was examined by MTT assay. HRCEC cells were cultured in a 37° C., 5% CO2 incubator to a density of 90% or more, and collected by trypsinization. The cells were resuspended in the culture medium and counted under a microscope to adjust the cell concentration to 3.0×10^4 cells/mL. The cell suspension was inoculated into a 96-well plate at 100 μL per well and cultured overnight at 37° C. in a 5% CO2 incubator. After the cells were completely adhered, the angiogenesis inhibitor polypeptide was added as the administration group, and Avastin was used as the positive control group, and the culture media without any drug was used as a blank control group, and the culture media were diluted to each predetermined concentration. Each dilution was separately added to a 96-well plate at 100 μL per well and incubated for 48 h at 37° C. in a 5% CO2 incubator. 20 μL of 5 mg/mL MTT was added to each well of a 96-well plate and incubation was continued for 4 h. The medium was aspirated and dissolved in 100 μL of DMSO per well. […] The formula is as follows: PI (%)=1−administration group/negative group
The test was repeated 3 times independently. The results obtained by the test were expressed as mean±SD, and a statistical T test was performed. *P<0.05 was a significant difference, and **P<0.01 was a very significant difference.

[2] = tested on: adjuvant arthritis (AA) SD rats; test: Adjuvant arthritis (AA) rat model; type: in vivo; settings: for Joint swelling / Left and right paw swelling / Clinical score: AA SD rats; for Clinical score: maximum score 16
[3] = tested on: neovascularization in rat model of premature retinopathy; test: Fluctuating-oxygen rat model of premature retinopathy (endothelial nuclei count); type: in vivo; settings: vascular endothelial nuclei per slice, day 14
Description: A fluctuating oxygen-induced animal model was used to randomly divide the newborn rats that were naturally delivered on the same day (within 12 hours) into three groups: the oxygenated model group, the oxygenated treatment group, and the normal control group. The oxygenated model group was subdivided into three subgroup models and along with the oxygenated treatment group was placed in a semi-closed oxygen chamber made of plexiglass. The chamber was connected to medical oxygen, and the oxygen analyzer was adjusted to a concentration of 80%±2%. After 24 hours, Nitrogen gas was introduced into the oxygen chamber, and the oxygen concentration was adjusted to 10%±2% and maintained for 24 h. This process was repeated, so that the oxygen concentration in the oxygen chamber is switched between 80% and 10% every 24 hours, and then transferred to the air for 7 days. The oxygen concentration was monitored 8 times a day, and the ambient temperature in the control cabin was 23° C.±2° C. Bedding change, adding food, changing water and replacing mother rats were performed once a day. The normal control group was placed in an animal facility environment. […] The oxygenated therapeutic components were divided into four subgroups, and on the 7th day of modeling, mPEG-SC-HM-1, mPEG2-NHS-HM-1, mPEG-ALD10k-HM-1, and mPEG-bALD-HM-1 were respectively administered by intravitreal injection. Only normal saline was administered to the oxygen model group and the control group. The administrations continued for 1 week. […] After immersion in wax, serial section at thickness of 4 μm was performed, wherein the sections were kept away from the optic disc. The sections are parallel to the sagittal plane of the cornea to the optic disc. Ten sections per eyeball were randomly selected from each eyeball to be stained with hematoxylin and eosin, and the number of vascular endothelial cells that broke through the retinal inner membrane was counted (only the vascular endothelial nucleus closely related to the inner retinal membrane was counted), and the average numbers of endothelial cells per eyeball per slice was counted.

[4] = in vivo
Hemangioma tumor cells = test: MTT proliferation inhibition, hemangioma cells; type: cell-based, human; parameters: concentration or dose not given beside the values; settings: 48 h
Description: The activity of mPEG-HM-1 to inhibit the growth of various tumor cells was examined by MTT assay. The tumor cells were cultured to a concentration of 90% or more in a 37° C., 5% CO2 incubator and collected by trypsinization. The cells were resuspended in the culture medium and counted under a microscope to adjust the cell concentration to 2×10^4 cells/mL, the cell suspension was inoculated into a 96-well plate at 100 μL/well and incubated overnight at 37° C. in a 5% CO2 incubator. mPEG-HM-1 was diluted with the culture solution to each predetermined concentration. Docetaxel is diluted to the final concentration with the culture medium. After the cells were fully attached, each dilution was added to a 96-well plate (100 μL/well). The mPEG-HM-1 dilution was added as a drug-administered group, and docetaxel was added as a positive control group, and a culture solution without any drug was used as a negative control group. Incubate for 48 h at 37° C. in a 5% CO2 incubator. 5 mg/mL of MTT was added to a 96-well plate at 20 μL per well, and incubation was continued for 4 hours. The medium was aspirated, dissolved in 150 μL of DMSO per well, and gently mixed by shaking for 10 min. The absorbance was measured at a measurement wavelength of 570 nm and a reference wavelength of 630 nm using a microplate reader, and the rate of growth inhibition (proliferation inhibition, PI) was calculated. The formula is as follows: PI (%)=1−administration group/negative group
The test was repeated 3 times independently, and the results obtained by the test were expressed as mean±SD, and the test results are shown in Table 15 to Table 18.

[5] = 80 mg/kg subcutaneous once every three days
[6] = 200 μg intravitreal for 1 week from day 7
[7] = 40 mg/kg subcutaneous once every three days
[8] = 20 mg/kg subcutaneous once every three days

| Substance | Inhibition rate ([1]; 80 μg/mL) | A570 nm-A630 nm ([1]; 80 μg/mL, MTT) | Inhibition rate ([1]; 100 μg/mL) | A570 nm-A630 nm ([1]; 100 μg/mL, MTT) | Inhibition rate ([1]; 120 μg/mL) | A570 nm-A630 nm ([1]; 120 μg/mL, MTT) | Joint swelling [2, 5] | Left and right paw swelling [2, 5] | Clinical score [2, 5] | Cell nuclei count [3, 6] | AUC0-∞ [4] | CL [4] | MRT0-∞ [4] | T1/2β (half-life) [4] | rate of growth inhibition (Hemangioma tumor cells) | Inhibition rate ([1]; 60 μg/mL) | A570 nm-A630 nm ([1]; 60 μg/mL, MTT) | further results |
| --- | --- | --- | --- | --- | --- | --- | --- | --- | --- | --- | --- | --- | --- | --- | --- | --- | --- | --- |
| mPEG-ALD40k-Arg-Gly-Ala-Asp-Arg-Ala-Gly-Gly-Gly-Gly-Arg-Gly-Asp ({mPEG‑ALD 40 kDa}-RGADRAGGGGRGD) [mPEG-ALD40k-HM-1] | 43.11%* | 0.7457 ± 0.07094 | 54.23%** | 0.5999 ± 0.07138 | 62.08%* | 0.4970 ± 0.07653 | 0.73 ± 0.17 mm | 3.80 ± 0.65 mm | 5.76 ± 1.03 | 8.673 ± 2.756 | 5276.69 ± 9.84 mg/L/h | 0.108 ± 0.0967 mL/min/kg | 16.52 ± 3.06 h | 43.31 ± 0.22 h | 50.67 ± 14.02% | – | – | – |
| mPEG-bALD20k-Arg-Gly-Ala-Asp-Arg-Ala-Gly-Gly-Gly-Gly-Arg-Gly-Asp ({mPEG‑bALD 20 kDa}-RGADRAGGGGRGD) [mPEG-bALD20k-HM-1] | 57.32%** | 0.5683 ± 0.07055 | 69.12%* | 0.4112 ± 0.07405 | – | – | – | – | – | – | 5872.56 ± 8.72 mg/L/h | 0.212 ± 0.155 mL/min/kg | 18.32 ± 2.99 h | 22.94 ± 0.24 h | 50.31 ± 14.00% | 47.53%* | 0.6987 ± 0.07838 | Joint swelling [2, 7]: 0.77 ± 0.23 mm; Left and right paw swelling [2, 7]: 3.78 ± 0.63 mm; Clinical score [2, 7]: 5.68 ± 1.10; Cell nuclei count ([3]; 100 μg intravitreal for 1 week from day 7): 7.158 ± 1.724 |
| mPEG2-NHS10k-Arg-Gly-Ala-Asp-Arg-Ala-Gly-Gly-Gly-Gly-Arg-Gly-Asp ({mPEG2‑NHS 10 kDa}-RGADRAGGGGRGD) [mPEG2-NHS10k-HM-1] | 65.13%* | 0.4609 ± 0.07165 | – | – | – | – | – | – | – | – | 4858.62 ± 10.62 mg/L/h | 0.432 ± 0.103 mL/min/kg | 13.08 ± 3.66 h | 15.27 ± 0.11 h | 48.81 ± 12.46% | 54.72%** | 0.5985 ± 0.07472 | Inhibition rate ([1]; 40 μg/mL): 45.83%*; A570 nm-A630 nm ([1]; 40 μg/mL, MTT): 0.7160 ± 0.07829; inhibition rate of HRCEC proliferation ([1]; 80 μg/mL, MTT): 65.13%; Joint swelling [2, 8]: 0.69 ± 0.19 mm; Left and right paw swelling [2, 8]: 3.80 ± 0.73 mm; Clinical score [2, 8]: 5.53 ± 1.09; in vivo immune protection effect on adjuvant arthritis model (in words) ([2]; AA rats, subcutaneous, once every three days, vs model group): has the most significant effect; Cell nuclei count ([3]; 50 μg intravitreal for 1 week from day 7): 8.786 ± 3.072 |
| mPEG2-NHS40k-Arg-Gly-Ala-Asp-Arg-Ala-Gly-Gly-Gly-Gly-Arg-Gly-Asp ({mPEG2‑NHS 40 kDa}-RGADRAGGGGRGD) [mPEG2-NHS40k-HM-1] | 42.52%* | 0.7598 ± 0.07143 | 51.86%** | 0.6363 ± 0.07532 | 62.78%* | 0.4920 ± 0.07953 | 0.73 ± 0.14 mm | 3.81 ± 0.63 mm | 5.89 ± 1.07 | 8.495 ± 3.036 | 4579.47 ± 13.52 mg/L/h | 0.11 ± 0.0883 mL/min/kg | 15.27 ± 9.37 h | 42.25 ± 0.27 h | 50.64 ± 15.89% | – | – | – |
| mPEG-SC40k-Arg-Gly-Ala-Asp-Arg-Ala-Gly-Gly-Gly-Gly-Arg-Gly-Asp ({mPEG‑SC 40 kDa}-RGADRAGGGGRGD) [mPEG-SC40k-HM-1] | 42.27%* | 0.7567 ± 0.07109 | 53.16%** | 0.6139 ± 0.0712 | 63.68%* | 0.4760 ± 0.07009 | 0.71 ± 0.11 mm | 3.83 ± 0.62 mm | 5.88 ± 1.08 | 8.089 ± 2.935 | 4365.64 ± 11.06 mg/L/h | 0.113 ± 0.0783 mL/min/kg | 16.36 ± 10.28 h | 42.19 ± 0.32 h | 53.36 ± 15.09% | – | – | – |
